Values quoted from earlier work as cited in patent US20120121700A1, “PHARMACEUTICAL FORMULATIONS COMPRISING VALGANCICLOVIR” (priority 2010, published 2012).

Settings: oral administration; background statement taken from U.S. Pat. No. 6,083,953

Row | Structure (SMILES) | bioavailability when administered orally
1 | CC(C)[C@H](N)C(=O)OCC(CO)OCn1cnc2c(=O)[nH]c(N)nc21.Cl (stereo partly drawn) [Valganciclovir hydrochloride, L-valine, 2-[(2-amino-1,6-dihydro-6-oxo-9H-purin-9-yl)methoxy]-3-hydroxypropyl ester, monohydrochloride] | better bioavailability than ganciclovir given orally
2 | Nc1nc(O)c2ncn(COC(CO)CO)c2n1 [gancilcovir, ganciclovir] | poor
